Like-named read-outs stand apart in the source and are kept apart here. A value given as a limit tells only on which side of the number the result lay.

One experiment concerns the target T1, human recombinant HDAC6 (Homo sapiens, UniProt Q9UBN7).
T1 construct: purchased Calbiochem Inc. 382180
T1 sequence (Q9UBN7 1-1215): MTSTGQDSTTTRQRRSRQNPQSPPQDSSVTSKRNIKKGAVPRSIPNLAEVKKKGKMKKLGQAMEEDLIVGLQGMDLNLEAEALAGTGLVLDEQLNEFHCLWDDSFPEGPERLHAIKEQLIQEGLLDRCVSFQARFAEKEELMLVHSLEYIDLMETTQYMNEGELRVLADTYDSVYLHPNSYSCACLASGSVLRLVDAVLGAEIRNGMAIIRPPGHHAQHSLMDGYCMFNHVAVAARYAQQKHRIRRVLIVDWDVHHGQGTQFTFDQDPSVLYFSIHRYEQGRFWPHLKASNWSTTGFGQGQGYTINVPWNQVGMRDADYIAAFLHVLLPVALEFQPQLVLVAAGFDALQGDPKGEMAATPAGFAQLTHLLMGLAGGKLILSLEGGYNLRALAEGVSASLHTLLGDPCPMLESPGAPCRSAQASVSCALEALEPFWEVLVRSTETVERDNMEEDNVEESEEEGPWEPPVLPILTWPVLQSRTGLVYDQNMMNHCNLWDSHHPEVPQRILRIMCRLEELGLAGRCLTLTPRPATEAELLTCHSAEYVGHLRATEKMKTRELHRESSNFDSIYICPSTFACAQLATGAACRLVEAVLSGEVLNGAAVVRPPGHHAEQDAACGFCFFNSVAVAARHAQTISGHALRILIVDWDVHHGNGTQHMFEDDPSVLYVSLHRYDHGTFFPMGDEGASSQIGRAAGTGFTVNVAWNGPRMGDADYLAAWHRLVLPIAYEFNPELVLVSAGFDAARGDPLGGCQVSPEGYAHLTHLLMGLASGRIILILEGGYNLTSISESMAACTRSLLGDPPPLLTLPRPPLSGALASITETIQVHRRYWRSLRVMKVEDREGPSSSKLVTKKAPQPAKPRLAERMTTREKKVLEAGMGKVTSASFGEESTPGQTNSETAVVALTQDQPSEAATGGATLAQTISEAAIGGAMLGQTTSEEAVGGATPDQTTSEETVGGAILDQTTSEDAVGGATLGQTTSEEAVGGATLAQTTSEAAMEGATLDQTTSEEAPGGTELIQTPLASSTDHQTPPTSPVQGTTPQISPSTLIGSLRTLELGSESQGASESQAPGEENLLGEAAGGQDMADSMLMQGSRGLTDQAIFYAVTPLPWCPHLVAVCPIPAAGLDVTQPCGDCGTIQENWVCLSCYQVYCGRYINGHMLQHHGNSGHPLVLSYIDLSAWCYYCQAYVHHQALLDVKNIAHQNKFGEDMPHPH
Description: HDAC6 enzyme activity inhibition (HDAC Fluorimetric Drug Discovery Kit). It counts as biochemical. The essentials: (§1)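 Compounds in 5-fold dilution series were incubated with […] enzyme and 10 μM substrate at 30° C for 60 minutes. Fluor de Lys Developer II was then added for 30 minutes to stop the reaction and develop the fluorescent signal.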

Another experiment has as its target T2, human recombinant HDAC1 (Homo sapiens, UniProt Q13547).
T2 construct: purchased Enzo Life Science, Inc. BML-SE456
Description: HDAC1 enzyme activity inhibition (HDAC Fluorimetric Drug Discovery Kit). It counts as biochemical. Conditions: read-out: HDAC1. The gist of the method:
as §1

[1] abbreviates: human recombinant HDAC6, IC50 calculated with GraphPad Prism.
Setting [2] is: human recombinant HDAC1, IC50 calculated with GraphPad Prism.
Setting [3] is: human recombinant HDAC6, same protocol as HDAC1.
Where [4] appears, read: human recombinant HDAC1, Fluor de Lys substrate, 30° C. 60 minutes.

T2 sequence (Q13547 whole entry): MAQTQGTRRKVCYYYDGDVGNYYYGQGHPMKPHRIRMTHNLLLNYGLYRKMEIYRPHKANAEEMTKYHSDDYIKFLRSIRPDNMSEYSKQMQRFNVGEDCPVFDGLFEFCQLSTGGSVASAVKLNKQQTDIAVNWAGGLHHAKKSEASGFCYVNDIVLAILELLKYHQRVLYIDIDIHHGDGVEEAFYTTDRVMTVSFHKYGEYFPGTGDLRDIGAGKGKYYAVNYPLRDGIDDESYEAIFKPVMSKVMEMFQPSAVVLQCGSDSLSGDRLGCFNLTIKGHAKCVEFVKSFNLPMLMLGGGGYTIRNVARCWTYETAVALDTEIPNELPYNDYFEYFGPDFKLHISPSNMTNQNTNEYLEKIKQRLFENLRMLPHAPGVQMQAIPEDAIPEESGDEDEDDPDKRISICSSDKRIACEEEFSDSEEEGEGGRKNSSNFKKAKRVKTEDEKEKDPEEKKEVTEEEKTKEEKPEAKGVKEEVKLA

As to `CC(=O)N1CCC(F)(c2cn(Cc3ccc(-c4nnc(C(F)F)o4)cn3)nn2)CC1` [Compound 4009, 1-(4-(1-((5-(5-(difluoromethyl)-1,3,4-oxadiazol-2-yl)pyridin-2-yl)methyl)-1H-1,2,3-triazol-4-yl)-4-fluoropiperidin-1-yl)ethan-1-one], the “HDAC6 selectivity (fold)” value on human recombinant HDAC6 (HDAC1 IC50 / HDAC6 IC50) worked out at 405 fold. The IC50 was 123 nM on human recombinant HDAC6 (setting [1]) and greater than 50000 nM at human recombinant HDAC1 (setting [2]).

`CN1CCC(Cc2cn(Cc3ccc(-c4nnc(C(F)F)o4)cn3)nn2)CC1` [Compound 4014, 2-(difluoromethyl)-5-(6-((4-((1-methylpiperidin-4-yl)methyl)-1H-1,2,3-triazol-1-yl)methyl)pyridin-3-yl)-1,3,4-oxadiazole]: the “HDAC6 selectivity (fold)” value at human recombinant HDAC6 (HDAC1 IC50 / HDAC6 IC50) came out at 246 fold. Further, the IC50 at human recombinant HDAC6 (setting [1]) was 203 nM; on human recombinant HDAC1 (setting [2]), greater than 50000 nM.

Take `CCN1CCN(c2cccc(-c3cn(Cc4ccc(-c5nnc(C(F)F)o5)cn4)nn3)c2F)CC1` [Compound 4570, 2-(difluoromethyl)-5-(6-((4-(3-(4-ethylpiperazin-1-yl)-2-fluorophenyl)-1H-1,2,3-triazol-1-yl)methyl)pyridin-3-yl)-1,3,4-oxadiazole]: the “HDAC6 selectivity (fold)” value on human recombinant HDAC6 (HDAC6 over HDAC1) is reported as 2475 fold. Moreover, the IC50 was 20.2 nM on human recombinant HDAC6 (setting [3]) and greater than 50000 nM at human recombinant HDAC1 (setting [4]).

In the case of `FC(F)c1nnc(-c2ccc(Cn3cc(-c4ccc(CNC5CCC5)cc4)nn3)nc2)o1` [Compound 4565, N-(4-(1-((5-(5-(difluoromethyl)-1,3,4-oxadiazol-2-yl)pyridin-2-yl)methyl)-1H-1,2,3-triazol-4-yl)benzyl)cyclobutanamine], the “HDAC6 selectivity (fold)” value at human recombinant HDAC6 (HDAC6 over HDAC1) is reported as 6024 fold. Besides, the IC50 at human recombinant HDAC6 (setting [3]) is 8.3 nM; on human recombinant HDAC1 (setting [4]) it was greater than 50000 nM.

`Fc1cc(-c2nnc(C(F)F)o2)ccc1Cn1cc(-c2cccs2)nn1` [Compound 18258, 2-(difluoromethyl)-5-(3-fluoro-4-((4-(thiophen-2-yl)-1H-1,2,3-triazol-1-yl)methyl)phenyl)-1,3,4-oxadiazole]: the “HDAC6 selectivity (fold)” value on human recombinant HDAC6 (HDAC6 over HDAC1) is listed as 582 fold. For the same molecule, the IC50 on human recombinant HDAC6 (setting [3]) was 85.9 nM; on human recombinant HDAC1 (setting [4]), greater than 50000 nM.

Consider `CN1CCc2cc(-c3cn(Cc4ccc(-c5nnc(C(F)F)o5)cc4F)nn3)sc2C1` [Compound 4500, 2-(difluoromethyl)-5-(3-fluoro-4-((4-(6-methyl-4,5,6,7-tetrahydrothieno[2,3-c]pyridin-2-yl)-1H-1,2,3-triazol-1-yl)methyl)phenyl)-1,3,4-oxadiazole], for which the “HDAC6 selectivity (fold)” value at human recombinant HDAC6 (HDAC6 over HDAC1) is 413 fold. The IC50 on human recombinant HDAC6 (setting [3]) was 121 nM; at human recombinant HDAC1 (setting [4]), greater than 50000 nM.

As to `CCN1CC(C(=O)Nc2cccc(-c3cn(Cc4ccc(-c5nnc(C(F)F)o5)cn4)nn3)c2)C1` [Compound 4464, N-(3-(1-((5-(5-(difluoromethyl)-1,3,4-oxadiazol-2-yl)pyridin-2-yl)methyl)-1H-1,2,3-triazol-4-yl)phenyl)-1-ethylazetidin-3-carboxamide], at human recombinant HDAC6 (HDAC1 IC50 / HDAC6 IC50), the “HDAC6 selectivity (fold)” value stood at 1650 fold. Further, the values for the IC50 on human recombinant HDAC6 (setting [1]) and at human recombinant HDAC1 (setting [2]) were 30.3 nM and greater than 50000 nM, respectively.

Take `Fc1cc(-c2nnc(C(F)F)o2)cnc1Cn1cc(-c2cccc3[nH]ccc23)nn1` [Compound 18921, 2-(6-((4-(1H-indol-4-yl)-1H-1,2,3-triazol-1-yl)methyl)-5-fluoropyridin-3-yl)-5-(difluoromethyl)-1,3,4-oxadiazole]: the “HDAC6 selectivity (fold)” value at human recombinant HDAC6 (HDAC6 over HDAC1) is 1592 fold. The IC50 on human recombinant HDAC6 (setting [3]) is 31.4 nM; at human recombinant HDAC1 (setting [4]), greater than 50000 nM.

In the case of `FC(F)c1nnc(-c2ccc(Cn3cc(-c4ccccc4-n4cncn4)nn3)nc2)o1` [Compound 4286, 2-(6-((4-(2-(1H-1,2,4-triazol-1-yl)phenyl)-1H-1,2,3-triazol-1-yl)methyl)pyridin-3-yl)-5-(difluoromethyl)-1,3,4-oxadiazole], the “HDAC6 selectivity (fold)” value on human recombinant HDAC6 (HDAC1 IC50 / HDAC6 IC50) was determined as 154 fold. The IC50 at human recombinant HDAC6 (setting [1]) is 324 nM; on human recombinant HDAC1 (setting [2]), greater than 50000 nM.

For the molecule `COc1cccc(-c2cn(Cc3ccc(-c4nnc(C(F)F)o4)cc3F)nn2)n1` [Compound 18736, 2-(difluoromethyl)-5-(3-fluoro-4-((4-(6-methoxypyridin-2-yl)-1H-1,2,3-triazol-1-yl)methyl)phenyl)-1,3,4-oxadiazole], the “HDAC6 selectivity (fold)” value at human recombinant HDAC6 (HDAC6 over HDAC1) is on record as 622 fold. Further, the IC50 is 80.3 nM on human recombinant HDAC6 (setting [3]) and greater than 50000 nM on human recombinant HDAC1 (setting [4]).

For the molecule `CN1Cc2ccc(-c3cn(Cc4ccc(-c5nnc(C(F)F)o5)cc4F)nn3)cc2C1` [Compound 4515, 2-(difluoromethyl)-5-(3-fluoro-4-((4-(2-methylisoindolin-5-yl)-1H-1,2,3-triazol-1-yl)methyl)phenyl)-1,3,4-oxadiazole], the “HDAC6 selectivity (fold)” value at human recombinant HDAC6 (HDAC6 over HDAC1) came to 900 fold. Moreover, the IC50 at human recombinant HDAC6 (setting [3]) is 55.5 nM; at human recombinant HDAC1 (setting [4]), greater than 50000 nM.

As for `Fc1cc(-c2nnc(C(F)F)o2)ccc1Cn1cc(-c2ccc(F)c(N3CCN(C4COC4)CC3)c2)nn1` [Compound 4427, 2-(difluoromethyl)-5-(3-fluoro-4-((4-(4-fluoro-3-(4-(oxetan-3-yl)piperazin-1-yl)phenyl)-1H-1,2,3-triazol-1-yl)methyl)phenyl)-1,3,4-oxadiazole], the “HDAC6 selectivity (fold)” value at human recombinant HDAC6 (HDAC1 IC50 / HDAC6 IC50) was 548 fold. Also, the IC50 was 91.2 nM on human recombinant HDAC6 (setting [1]) and greater than 50000 nM at human recombinant HDAC1 (setting [2]).

`CN1CCN(c2ccc(F)c(-c3cn(Cc4ccc(-c5nnc(C(F)F)o5)cc4)nn3)c2)CC1` [Compound 4451, 2-(difluoromethyl)-5-(4-((4-(2-fluoro-5-(4-methylpiperazin-1-yl)phenyl)-1H-1,2,3-triazol-1-yl)methyl)phenyl)-1,3,4-oxadiazole]: the “HDAC6 selectivity (fold)” value on human recombinant HDAC6 (HDAC1 IC50 / HDAC6 IC50) is reported as 1976 fold. In addition, the IC50 was 16.8 nM at human recombinant HDAC6 (setting [1]) and greater than 50000 nM at human recombinant HDAC1 (setting [2]).

In the case of `FC(F)c1nnc(-c2ccc(Cn3cc(-c4cccc(C5CN(C6COC6)C5)c4)nn3)cc2)o1` [Compound 4511, 2-(difluoromethyl)-5-(4-((4-(3-(1-(oxetan-3-yl)azetidin-3-yl)phenyl)-1H-1,2,3-triazol-1-yl)methyl)phenyl)-1,3,4-oxadiazole], on human recombinant HDAC6 (HDAC6 over HDAC1), the “HDAC6 selectivity (fold)” value is reported as 325 fold. For the same molecule, the IC50 at human recombinant HDAC6 (setting [3]) was 64.2 nM; on human recombinant HDAC1 (setting [4]) it was greater than 50000 nM.

On to `CC(C)(C)OC(=O)N1CCC(c2cn(Cc3ccc(-c4nnc(C(F)F)o4)cn3)nn2)CC1` [Compound 3805, tert-butyl 4-(1-((5-(5-(difluoromethyl)-1,3,4-oxadiazol-2-yl)pyridin-2-yl)methyl)-1H-1,2,3-triazol-4-yl)piperidin-1-carboxylate], for which, at human recombinant HDAC6 (HDAC1 IC50 / HDAC6 IC50), the “HDAC6 selectivity (fold)” value stood at 844 fold. Besides, the IC50 is 59.2 nM at human recombinant HDAC6 (setting [1]) and greater than 50000 nM on human recombinant HDAC1 (setting [2]).

With `FC(F)c1nnc(-c2ccc(Cn3cc(-c4ccnc5[nH]ccc45)nn3)cc2)o1` [Compound 4527, 2-(4-((4-(1H-pyrrolo[2,3-b]pyridin-4-yl)-1H-1,2,3-triazol-1-yl)methyl)phenyl)-5-(difluoromethyl)-1,3,4-oxadiazole], the “HDAC6 selectivity (fold)” value on human recombinant HDAC6 (HDAC6 over HDAC1) was 4310 fold. Moreover, the IC50 on human recombinant HDAC6 (setting [3]) was 11.6 nM; on human recombinant HDAC1 (setting [4]) it was greater than 50000 nM.

`FC(F)c1nnc(-c2ccc(Cn3cc(-c4ccnc(N5CCN(C6COC6)CC5)c4)nn3)nc2)o1` [Compound 4594, 2-(difluoromethyl)-5-(6-((4-(2-(4-(oxetan-3-yl)piperazin-1-yl)pyridin-4-yl)-1H-1,2,3-triazol-1-yl)methyl)pyridin-3-yl)-1,3,4-oxadiazole]: the “HDAC6 selectivity (fold)” value at human recombinant HDAC6 (HDAC6 over HDAC1) amounted to 2057 fold. In addition, the figures for the IC50 at human recombinant HDAC6 (setting [3]) and on human recombinant HDAC1 (setting [4]) were 24.3 nM and greater than 50000 nM, respectively.

For the molecule `FC(F)c1nnc(-c2ccc(Cn3cc(-c4cccc(N5C[C@@H]6C[C@H]5CN6C5CCC5)c4)nn3)cc2)o1` [Compound 4322], the “HDAC6 selectivity (fold)” value at human recombinant HDAC6 (HDAC1 IC50 / HDAC6 IC50) is recorded as 531 fold. In addition, the results for the IC50 at human recombinant HDAC6 (setting [1]) and on human recombinant HDAC1 (setting [2]) were 94 nM and greater than 50000 nM, respectively.

The values are drawn from patent US20230257372A1 (CHONG KUN DANG PHARMACEUTICAL CORP., priority 2020, published 2023).
